# Measurements from PMC6587507, “Comparison of the metabolism of 10 chemicals in human and pig skin explants” (Journal of Applied Toxicology, 2018).
# Where two headings read alike, the source gives them in different places.
# Tests used:
# [1] = tested on: pig ear skin explants; experiment: Cutaneous distribution and mass balance of radioactivity in pig skin explants; conditions: pig skin; for % Radioactivity in culture media after 24 h / Mass balance (% of applied dose at end of incubation): 2.4 nmol/cm^2; for Mass balance (% of applied dose at end of incubation): 48 h; for Medium radioactivity / Skin radioactivity / Skin surface radioactivity: end of incubation (48 h), mean ± SD
# Procedure: (§1) Human abdominal skin was obtained (with consent for research from a commercial supplier [L’Union Clinic, Rangueil hospital and Icelltis, Toulouse, France] with certified ethical procedures) from six male and 34 female healthy donors, 41 ± 11 years of age, undergoing cosmetic surgery. Abdominal skin was kept at 4°C during transports and placed in culture within 3 hours of surgery. Pig ear skin was a waste product of the meat industry (without hot steam treatment) from domestic pigs (female Pietrain breed, 6 months old, 80‐100 kg) obtained from a local slaughterhouse (Montauban, France). Ears were taken from the animals within 5 minutes of slaughter and were kept at 4°C during transport to the laboratory, which lasted a maximum of 2 hours. Pig skin samples were dried and then gently shaved.
# (§2) The experiment and the preparation of the culture medium were performed under sterile conditions. Human and pig skin was cut with a dermatome to a thickness of 450 ± 50 μm. Skin punches were seeded dermal side down in polycarbonate Transwell® inserts from Corning Life Sciences (Avon, France; 4.16 cm^2 application area with an 8 μm pore size filter). […] The inserts were placed in a six‐well plate containing 1.5 mL culture medium and the skin explants incubated in a standard incubator at 37°C, under an atmosphere of 5% CO2 and 50 ± 10% relative humidity. The culture medium was Dulbecco's modified Eagle medium without phenol red supplemented with 8 mM L‐glutamine, 2 μg/mL streptomycin/penicillin, 25 ng/mL fungizone and 50 ng/mL gentamycin. Skin explants were incubated for 1 hour before application of the formulation.
# (§3) The dosing volume was 10 μL/cm^2. For pig skin metabolism studies, which were carried out before the human skin experiments to ensure the analytics were optimal, 2.4 nmol/cm^2 of each chemical (only the ^14C‐labeled form) was applied on the skin and incubated for 24 hours for the measurement of metabolites in the medium. These tissues were further incubated for a total of 48 hours, with a replacement of the culture medium after 24 hours. This longer incubation time and the standard doses of 2.4 nmol/cm^2 were used to maximize the likelihood of the skin forming metabolites to develop analytical methods. The metabolites profiles in pig and human skin were compared in the medium sample at 24 hours of incubation. The metabolite profiles for the 48‐hour timepoint are not reported here since humans skin metabolism was measured at 24 hours only; however, for completeness, the distribution of radioactivity at the end of both pig (48 hours) and human (24 hours) skin incubations is reported. […] The doses were obtained by mixing radiolabeled and cold chemical. One replicate disc per donor and per dose was used. All chemicals were tested on four donors of pig and human skin, except for 2‐AAF and 4‐amino‐3‐nitrophenol (4‐A‐3‐NP), for which three donors were used. The medium was removed after 24 hours of incubation and stored at −20°C for analysis.
# (§4) At the end of the experiment, the trans‐wells were dismantled and washed with appropriate solvent for each chemical. […] The cotton swabs were placed in 5 mL of appropriate solvent in a scintillation counting flask and placed in a sonicator bath for 20 minutes. Aliquots of 1 mL were counted by liquid scintillation, after addition of 15 mL of scintillation liquid. Tissue culture inserts were washed with 10 mL of appropriate solvent. One aliquot of 1 mL was counted by liquid scintillation, after addition of 15 mL of scintillation liquid. After media removal, wells were washed twice with 1 mL of the appropriate solvent. Washing solutions were counted by liquid scintillation, after addition of 15 mL of scintillation liquid.
# (§5) Pig skin explants were digested using 3 mL Soluable (60°C for 24 hours) and counted by liquid scintillation. Skin extraction process was adapted according to the physicochemical properties of each chemical and its potential metabolites.
# [2] = tested on: human abdominal skin explants; experiment: Cutaneous distribution and mass balance of radioactivity in human skin explants; conditions: human skin; for % Radioactivity in culture media after 24 h / Mass balance (% of applied dose at end of incubation): 24 h; for Medium radioactivity / Skin radioactivity / Skin surface radioactivity: end of incubation (24 h), mean ± SD
# Procedure: as §1, §2, §3, §4, §5
# [3] = tested on: human abdominal skin explants
# Procedure: as §1, §2, §3
# (§6) After centrifugation, a 100 μL aliquot of the extract was counted by liquid scintillation. The pellet was dissolved in 3 mL Soluable (60°C, 24 hours) and then counted by liquid scintillation.
# (§7) Analysis of the chemicals and their metabolites in medium after 24 hours of incubation with pig and human skin was measured by radio‐high‐performance liquid chromatography (HPLC) using an HPLC 1100 Series, Agilent and a Flow Scintillation Analyzer, Radiomatic 610 TR, Perkin Elmer (Villebon‐sur‐Yvette, France). […] To confirm that metabolites were the same in pig and human skin, medium samples were co‐injected on the new column. The metabolites were identified by LC‐electrospray ionization‐HRMS (HPLC‐ESI‐HRMS) with a RSLC3000 HPLC system coupled to a LTQ‐Orbitrap XL mass spectrometer (Thermo Scientific). The HPLC analytical conditions for identification and quantification of the metabolites for each chemical are summarized in Supporting information Table S1.
# [4] = tested on: pig ear skin explants; conditions: for Parent compound in the medium after 24 h / Metabolites detected in the skin or culture media / Number of metabolites detected in the culture medium: pig skin; for Parent compound in the medium after 24 h: mean ± SEM; for Parent compound in the medium after 24 h / Number of metabolites detected in the culture medium: 24 h
# Procedure: as §1, §2, §3, §6, §7
# [5] = tested on: N‐acetyltransferase (NAT)1 enzyme; parameters: method as in unpublished data; conditions: ref unpublished data; cited from earlier work
# [6] = ref Chemspider (www.chemspider.com), cited from earlier work
# [7] = tested on: skin explants; experiment: Skin explant assay, radioactivity in culture medium bound to proteins; type: in vitro ADME; conditions: medium with 4% BSA; species not stated
% Radioactivity in culture media after 24 h [1] [%],Mass balance (% of applied dose at end of incubation) [1],Medium radioactivity [1],Skin radioactivity [1],Skin surface radioactivity [1],% Radioactivity in culture media after 24 h [2] [%],Mass balance (% of applied dose at end of incubation) [2],Medium radioactivity [2],Skin radioactivity [2],Skin surface radioactivity [2],"Parent compound in the medium after 24 h ([3]; human skin, 24 h, mean ± SEM) [% Applied dose]",Parent compound in the medium after 24 h [4] [% Applied dose],SMILES,LogP [6],Maximum water solubility [6] [µg/mL],other results
51.9 ± 6.7,96.0 ± 2.6 % of applied dose,69.9 ± 5.8 % of the applied dose,15.6 ± 5.3 % of the applied dose,10.5 ± 5.1 % of the applied dose,62.3 ± 3.4,94.4 ± 3.0 % of applied dose,62.3 ± 3.4 % of the applied dose,28.6 ± 4.5 % of the applied dose,3.6 ± 2.1 % of the applied dose,0.1 ± 0.06,0.6 ± 0.2,"Nc1ccc(O)cc1[N+](=O)[O-] [4‐A‐3‐NP, 4‐amino‐3‐nitrophenol]",0.41,2000,N‐acetylated metabolite ([3]; human skin incubations): not detected; N‐acetylated metabolite ([4]; pig skin incubations): not detected; Substrate for NAT1 [5]: not a substrate
62.5 ± 2.7,100.0 ± 3.8 % of applied dose,89.7 ± 3.4 % of the applied dose,9.3 ± 0.4 % of the applied dose,1.0 ± 0.1 % of the applied dose,,91.9 ± 3.8 % of applied dose,66.7 ± 3.5 % of the applied dose,24.1 ± 6.2 % of the applied dose,1.4 ± 0.2 % of the applied dose,57.7 ± 3.1,60.8 ± 0.6,"CCOc1ccc2ccc(=O)oc2c1 [7‐EC, 7‐ethoxycoumarin]",2.30,780,"Number of metabolites detected in the culture medium ([3]; human skin, 24 h): three; Number of metabolites detected in the culture medium [4]: three"
63.2 ± 1.9,96.8 ± 1.9 % of applied dose,87.1 ± 2.7 % of the applied dose,8.5 ± 0.8 % of the applied dose,1.2 ± 1.1 % of the applied dose,83.5 ± 4.8,99.9 ± 5.8 % of applied dose,83.5 ± 4.8 % of the applied dose,16.2 ± 3.2 % of the applied dose,0.2 ± 0.1 % of the applied dose,0.2 ± 0.03,0.0,OCC=Cc1ccccc1 [Cinnamyl alcohol],1.95,4000,"Number of metabolites detected in the culture medium ([3]; human skin, 24 h): eight"
58.6 ± 7.6,92.7 ± 5.92 % of applied dose,71.0 ± 7.1 % of the applied dose,,,,94.2 ± 3.5 % of applied dose,54.4 ± 1.5 % of the applied dose,,,,1.8 ± 0.8,Oc1cccc(O)c1 [Resorcinol],0.80,,"Glucuronide conjugate as share of the total metabolites observed ([3]; both, human, 24 h): > 78 % of the total metabolites; Parent compound in the medium after 24 h ([3]; both, human, 24 h): 4.8 ± 0.7 % Applied dose; Sulfate conjugate as share of the total metabolites ([3]; both, human, 24 h): 19 % of the total metabolites; Total metabolites in the medium after 24 h ([3]; both, human, 24 h): 41.9 ± 0.6 % Applied dose"
58.6 ± 5.2,90.7 ± 1.7 % of applied dose,77.4 ± 5.1 % of the applied dose,,,60.0 ± 7.8,104.4 ± 6.0 % of applied dose,60.0 ± 7.8 % of the applied dose,,,,0.1 ± 0.04,COc1cc(C=O)ccc1O [Vanillin],,8500,"Parent compound in the medium after 24 h ([3]; both, human, 24 h): 0.3 ± 0.09 % Applied dose; Total metabolites in the medium after 24 h ([3]; both, human, 24 h): 51.1 ± 2.3 % Applied dose; Number of metabolites detected in the culture medium [4]: Six"

SMILES,% Radioactivity in culture media after 24 h [1] [%],Mass balance (% of applied dose at end of incubation) [1],Medium radioactivity [1],Skin radioactivity [1],Skin surface radioactivity [1],% Radioactivity in culture media after 24 h [2] [%],Mass balance (% of applied dose at end of incubation) [2],Medium radioactivity [2],Skin radioactivity [2],Skin surface radioactivity [2],"Parent compound in the medium after 24 h ([3]; human skin, 24 h, mean ± SEM) [% Applied dose]",Parent compound in the medium after 24 h [4] [% Applied dose],LogP [6],Maximum water solubility [6] [µg/mL],other results
Nc1ccc(Cl)cc1 [4‐Chloroaniline],54.3 ± 0.6,99.2 ± 10.8 % of applied dose,,,0.7 ± 0.2 % of the applied dose,49.7 ± 4.4,86.2 ± 0.7 % of applied dose,,,2.2 ± 0.5 % of the applied dose,,,,3200,Medium radioactivity ([1]; listed as 4-Chloroaniline): 82.1 ± 8.8 % of the applied dose; Skin radioactivity ([1]; listed as 4-Chloroaniline): 16.3 ± 2.3 % of the applied dose; Medium radioactivity ([1]; listed as 4‐chloroaniline): 82 % of the applied dose; Skin radioactivity ([1]; listed as 4‐chloroaniline): 16 % of the applied dose; Medium radioactivity ([2]; listed as 4-Chloroaniline): 49.7 ± 4.4 % of the applied dose; Skin radioactivity ([2]; listed as 4-Chloroaniline): 34.4 ± 3.8 % of the applied dose; Medium radioactivity ([2]; listed as 4‐chloroaniline): 50 % of the applied dose; Skin radioactivity ([2]; listed as 4‐chloroaniline): 35 % of the applied dose; Metabolites detected in the skin or culture media ([3]; human skin): no metabolites were detected; Metabolites detected in the skin or culture media [4]: no metabolites were detected; Radioactivity detected in the culture medium bound to proteins [7]: ~ 20%
"Cn1c(N)nc2c3cccnc3ccc21 [IQ, 2‐amino‐3‐methylimidazo[4,5‐f]quinoline]",30.1 ± 2.3,96.3 ± 6.6 % of applied dose,54.8 ± 8.3 % of the applied dose,33.6 ± 5.1 % of the applied dose,7.8 ± 3.9 % of the applied dose,10.5 ± 13.4,94.5 ± 10.6 % of applied dose,10.5 ± 13.4 % of the applied dose,66.0 ± 12.3 % of the applied dose,17.9 ± 3.7 % of the applied dose,,,1.47,530,Metabolites detected in the skin or culture media ([3]; human skin): no metabolites were detected; Metabolites detected in the skin or culture media [4]: no metabolites were detected
